Measurements taken from patent US20190209680A1, “TREATMENT OF ACUTE LIVER FAILURE” (The University of Birmingham, priority 2016, published 2019).

Test system: carbon tetrachloride induced liver injury in CLEC1b fl/fl PF4cre mice
Test: Carbon tetrachloride injection in CLEC1b fl/fl PF4cre (KO) mice pre-treated with Etanercept
Assay type: in vivo, mouse
Settings: for Number of neutrophils per gram of liver tissue: 48 hours after carbon tetrachloride injection
Description: Kupffer cells isolated from WT mouse livers were plated in a tissue culture well, treated with lipopolysaccharide (LPS) and incubated with either platelets from CLEC2 deficient animals or WT platelets. (A) Production of TNF-alpha by Kupffer cells was measured in response to LPS plus either CLEC-2 deficient (KO) platelets or WT platelets (n=4 per group). (B) Isolated Kupffer cells (F480^+, shown in green), were incubated with either CLEC2 deficient or WT platelets (CD41^+, shown in purple). DAPI (blue) was used as a nuclear stain. Representative images (63× magnification) are shown. (C) Serum was isolated from WT and CLEC1b fl/fl PF4cre (KO) mice at 24 hours after carbon tetrachloride injection and serum TNF-alpha levels measured by ELISA. Levels are shown as picograms/ml (n=6/group) (*P<0.05, **P<0.01, ***P<0.001), (D) CLEC1b fl/fl PF4cre mice were pre-treated with an anti-TNF-alpha monoclonal antibody (Etanercept) before carbon tetrachloride injection (KO+AB). WT and CLEC1b fl/fl PF4cre mice not pre-treated before carbon tetrachloride injection were used as controls (WT and KO, accordingly). Mice were sacrificed 48 hours after the carbon tetrachloride injection. […]
Mouse livers were harvested after the animal was euthanized under deep sedation after cardiac puncture. […] The resulting immune cells were then purified using an Optiprep gradient (Sigma) and analysed by flow cytometry. […] Absolute cell counts were determined with AccuCheck Counting Beads (Invitrogen), and the number of cells was normalised to the total liver weight. Data were analysed using a CyAn ADP flow cytometer (Beckman Coulter) or a BD LSRII using Summit version 4.3 or FlowJo version 10.0.7 software where appropriate.
Serum was isolated from whole blood and levels of liver-specific enzymes AST and ALT were measured on a clinical autoanalyser, according to standard protocols in the Biochemistry Department at the Birmingham Women's Hospital, Birmingham, UK. […]

Substance: Etanercept
- Number of neutrophils per gram of liver tissue (compared to CLEC1b fl/fl PF4cre mice not pre-treated with antibody (FIG. 3D)): substantially reduced
- Number of neutrophils per gram of liver tissue (pre-treated KO mice relative to WT control (FIG. 3D)): comparable to WT control
- Serum ALT levels (48 hours post carbon tetrachloride, compared to CLEC-2 deficient mice not given antibody (FIG. 3E)): considerably higher
